Results from PMC10528299, “Targeting FAK/PYK2 with SJP1602 for Anti-Tumor Activity in Triple-Negative Breast Cancer” (Current Issues in Molecular Biology, 2023).

What was measured:
Experiment in all cases: Eurofins kinase profiling
Type in all cases: biochemical
[1] = target: T1, CHK1(h) (Homo sapiens, UniProt O14757); conditions: read-out: residual kinase activity CHK1(h)
T1 construct: purchased Eurofins KinaseProfiler
T1 sequence (O14757 1-476): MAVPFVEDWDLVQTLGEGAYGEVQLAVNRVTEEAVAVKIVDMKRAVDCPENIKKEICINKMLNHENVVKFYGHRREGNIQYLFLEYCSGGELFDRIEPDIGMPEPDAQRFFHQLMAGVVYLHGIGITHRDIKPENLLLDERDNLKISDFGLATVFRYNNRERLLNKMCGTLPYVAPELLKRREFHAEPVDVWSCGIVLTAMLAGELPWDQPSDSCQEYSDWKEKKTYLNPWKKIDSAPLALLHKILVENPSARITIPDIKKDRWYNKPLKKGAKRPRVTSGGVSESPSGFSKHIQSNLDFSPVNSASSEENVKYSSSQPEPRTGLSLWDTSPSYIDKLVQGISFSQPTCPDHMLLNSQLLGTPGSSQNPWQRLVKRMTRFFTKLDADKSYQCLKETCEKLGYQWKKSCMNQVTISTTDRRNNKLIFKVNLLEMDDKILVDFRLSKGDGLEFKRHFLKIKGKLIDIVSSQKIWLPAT
Outline: (§1)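 Each kinase is incubated with compound (1 µM). Activity is then determined radiometrically from transfer of labeled phosphate.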

[2] = target: T2, CK1γ3(h) (Homo sapiens, UniProt Q9Y6M4); conditions: read-out: residual kinase activity CK1γ3(h)
T2 construct: purchased Eurofins KinaseProfiler
T2 sequence (Q9Y6M4 whole entry): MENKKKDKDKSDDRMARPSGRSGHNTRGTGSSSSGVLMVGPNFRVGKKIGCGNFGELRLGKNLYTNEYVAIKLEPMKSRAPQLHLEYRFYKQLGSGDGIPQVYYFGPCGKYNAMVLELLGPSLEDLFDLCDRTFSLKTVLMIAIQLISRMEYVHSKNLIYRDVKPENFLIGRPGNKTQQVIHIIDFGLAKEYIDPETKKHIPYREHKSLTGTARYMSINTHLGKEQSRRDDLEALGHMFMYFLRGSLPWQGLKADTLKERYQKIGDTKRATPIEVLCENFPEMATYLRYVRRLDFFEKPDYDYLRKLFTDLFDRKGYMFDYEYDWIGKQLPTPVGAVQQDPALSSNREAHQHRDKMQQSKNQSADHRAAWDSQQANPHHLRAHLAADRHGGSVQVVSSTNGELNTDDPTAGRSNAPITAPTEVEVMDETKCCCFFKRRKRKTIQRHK
Outline: as §1

[3] = target: T3, CSK(h) (Homo sapiens, UniProt P41240); conditions: read-out: residual kinase activity CSK(h)
T3 construct: purchased Eurofins KinaseProfiler
T3 sequence (P41240 whole entry): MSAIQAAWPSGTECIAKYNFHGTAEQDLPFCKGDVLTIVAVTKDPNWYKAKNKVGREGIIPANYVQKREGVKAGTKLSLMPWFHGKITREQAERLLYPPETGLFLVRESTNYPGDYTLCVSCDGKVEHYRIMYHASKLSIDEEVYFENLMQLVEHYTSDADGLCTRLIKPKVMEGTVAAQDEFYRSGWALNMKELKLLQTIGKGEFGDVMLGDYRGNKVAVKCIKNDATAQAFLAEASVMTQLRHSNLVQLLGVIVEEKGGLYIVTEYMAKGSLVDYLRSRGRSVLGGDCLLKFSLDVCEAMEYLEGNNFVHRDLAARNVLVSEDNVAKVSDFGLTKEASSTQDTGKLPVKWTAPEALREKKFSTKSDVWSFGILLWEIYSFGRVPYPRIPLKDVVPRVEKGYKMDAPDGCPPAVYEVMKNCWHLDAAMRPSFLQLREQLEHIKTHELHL
Outline: as §1

[4] = target: T4, EGFR(L861Q)(h) (Homo sapiens, UniProt P00533, L861Q); conditions: read-out: residual kinase activity EGFR(L861Q)(h)
T4 construct: purchased Eurofins KinaseProfiler
Outline: as §1

[5] = target: T5, FAK(h) (Homo sapiens, UniProt Q05397); conditions: read-out: residual kinase activity FAK(h)
T5 construct: purchased Eurofins KinaseProfiler
T5 sequence (Q05397 whole entry): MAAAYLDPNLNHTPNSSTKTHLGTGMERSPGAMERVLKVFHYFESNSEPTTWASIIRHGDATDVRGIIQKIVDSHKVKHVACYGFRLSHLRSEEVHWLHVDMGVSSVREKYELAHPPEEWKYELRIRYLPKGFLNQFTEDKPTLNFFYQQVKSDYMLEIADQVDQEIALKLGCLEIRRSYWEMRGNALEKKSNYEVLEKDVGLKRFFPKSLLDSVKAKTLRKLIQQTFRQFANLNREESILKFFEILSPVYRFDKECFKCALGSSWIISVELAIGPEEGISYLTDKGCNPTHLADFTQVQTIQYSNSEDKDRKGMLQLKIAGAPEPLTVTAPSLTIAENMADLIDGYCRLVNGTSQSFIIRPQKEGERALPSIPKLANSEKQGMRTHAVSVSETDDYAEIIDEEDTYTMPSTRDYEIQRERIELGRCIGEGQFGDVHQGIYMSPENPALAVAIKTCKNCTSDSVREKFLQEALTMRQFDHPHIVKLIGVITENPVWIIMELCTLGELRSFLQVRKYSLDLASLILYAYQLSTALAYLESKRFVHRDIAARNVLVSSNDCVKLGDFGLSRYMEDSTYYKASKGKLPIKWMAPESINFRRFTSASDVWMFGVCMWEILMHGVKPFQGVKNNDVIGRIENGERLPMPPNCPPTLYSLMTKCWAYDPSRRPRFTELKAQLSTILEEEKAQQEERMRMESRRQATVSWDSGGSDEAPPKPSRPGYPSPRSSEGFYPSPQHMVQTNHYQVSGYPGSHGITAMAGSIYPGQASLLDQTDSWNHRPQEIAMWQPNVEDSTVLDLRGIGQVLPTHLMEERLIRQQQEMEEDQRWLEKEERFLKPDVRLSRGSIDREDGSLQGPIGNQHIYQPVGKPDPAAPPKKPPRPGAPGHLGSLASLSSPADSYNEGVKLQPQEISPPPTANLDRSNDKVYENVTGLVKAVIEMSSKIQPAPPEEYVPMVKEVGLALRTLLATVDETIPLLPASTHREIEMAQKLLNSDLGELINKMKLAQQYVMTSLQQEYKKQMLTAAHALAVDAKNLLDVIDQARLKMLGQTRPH
Outline: as §1

[6] = target: T6, FGFR1(h) (Homo sapiens, UniProt P11362); conditions: read-out: residual kinase activity FGFR1(h)
T6 construct: purchased Eurofins KinaseProfiler
T6 sequence (P11362 22-822): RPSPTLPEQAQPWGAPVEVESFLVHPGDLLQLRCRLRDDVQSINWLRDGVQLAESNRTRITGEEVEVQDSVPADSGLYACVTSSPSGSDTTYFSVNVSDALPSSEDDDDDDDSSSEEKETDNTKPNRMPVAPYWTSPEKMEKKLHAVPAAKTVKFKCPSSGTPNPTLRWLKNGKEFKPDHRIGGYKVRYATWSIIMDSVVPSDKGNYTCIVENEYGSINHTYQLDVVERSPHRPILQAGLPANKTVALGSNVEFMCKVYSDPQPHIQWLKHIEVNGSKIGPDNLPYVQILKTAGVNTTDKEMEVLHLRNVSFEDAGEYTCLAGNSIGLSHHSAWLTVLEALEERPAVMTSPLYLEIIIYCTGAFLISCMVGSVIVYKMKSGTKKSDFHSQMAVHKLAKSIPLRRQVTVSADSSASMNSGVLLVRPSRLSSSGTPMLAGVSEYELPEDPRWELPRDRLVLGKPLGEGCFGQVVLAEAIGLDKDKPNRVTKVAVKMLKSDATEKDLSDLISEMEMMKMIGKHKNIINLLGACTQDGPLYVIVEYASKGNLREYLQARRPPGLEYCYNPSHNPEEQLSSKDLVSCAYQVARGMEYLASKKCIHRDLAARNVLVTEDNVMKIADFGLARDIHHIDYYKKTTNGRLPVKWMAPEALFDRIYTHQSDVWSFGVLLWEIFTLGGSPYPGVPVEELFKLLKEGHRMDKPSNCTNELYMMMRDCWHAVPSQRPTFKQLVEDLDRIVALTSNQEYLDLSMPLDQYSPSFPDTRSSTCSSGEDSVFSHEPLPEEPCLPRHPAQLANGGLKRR
Outline: as §1

[7] = target: T7, HIPK2(h) (Homo sapiens, UniProt Q9H2X6); conditions: read-out: residual kinase activity HIPK2(h)
T7 construct: purchased Eurofins KinaseProfiler
Outline: as §1

[8] = target: T8, IGF-1R(h) (Homo sapiens, UniProt P08069); conditions: read-out: residual kinase activity IGF-1R(h)
T8 construct: purchased Eurofins KinaseProfiler
T8 sequence (P08069 31-1367): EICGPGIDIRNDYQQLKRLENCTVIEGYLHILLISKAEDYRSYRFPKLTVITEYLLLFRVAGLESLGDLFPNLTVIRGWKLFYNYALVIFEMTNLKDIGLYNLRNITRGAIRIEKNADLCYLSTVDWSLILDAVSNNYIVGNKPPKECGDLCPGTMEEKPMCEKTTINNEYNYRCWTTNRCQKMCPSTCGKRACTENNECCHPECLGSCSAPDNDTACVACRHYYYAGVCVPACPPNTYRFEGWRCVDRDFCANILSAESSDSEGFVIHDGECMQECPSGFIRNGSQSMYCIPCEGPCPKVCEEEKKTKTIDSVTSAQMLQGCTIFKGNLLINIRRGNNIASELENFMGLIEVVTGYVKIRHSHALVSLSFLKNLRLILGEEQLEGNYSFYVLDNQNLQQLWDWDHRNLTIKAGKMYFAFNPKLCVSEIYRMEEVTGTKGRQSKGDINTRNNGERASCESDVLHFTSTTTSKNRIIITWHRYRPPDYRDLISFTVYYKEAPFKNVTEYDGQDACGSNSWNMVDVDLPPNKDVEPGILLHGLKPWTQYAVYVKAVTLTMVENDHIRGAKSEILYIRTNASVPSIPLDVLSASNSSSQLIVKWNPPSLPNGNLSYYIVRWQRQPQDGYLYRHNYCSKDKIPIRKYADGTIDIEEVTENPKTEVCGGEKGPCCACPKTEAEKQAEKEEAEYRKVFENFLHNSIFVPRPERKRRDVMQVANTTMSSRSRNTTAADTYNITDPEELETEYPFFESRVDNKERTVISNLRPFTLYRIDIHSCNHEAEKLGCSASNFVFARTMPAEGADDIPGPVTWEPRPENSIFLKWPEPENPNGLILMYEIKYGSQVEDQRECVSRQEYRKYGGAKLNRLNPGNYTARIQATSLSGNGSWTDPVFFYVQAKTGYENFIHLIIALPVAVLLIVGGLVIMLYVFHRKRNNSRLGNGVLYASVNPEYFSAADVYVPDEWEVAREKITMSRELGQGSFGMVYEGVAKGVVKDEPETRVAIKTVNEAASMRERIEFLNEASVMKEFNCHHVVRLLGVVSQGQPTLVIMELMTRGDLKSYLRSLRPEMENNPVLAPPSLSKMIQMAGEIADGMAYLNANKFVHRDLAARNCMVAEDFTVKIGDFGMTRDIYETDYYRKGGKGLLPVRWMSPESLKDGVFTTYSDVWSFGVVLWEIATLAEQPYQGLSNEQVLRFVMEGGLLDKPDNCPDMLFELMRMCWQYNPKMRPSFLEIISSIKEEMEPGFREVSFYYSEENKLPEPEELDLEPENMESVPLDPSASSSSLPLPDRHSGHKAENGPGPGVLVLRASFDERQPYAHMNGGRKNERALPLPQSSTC
Outline: as §1

[9] = target: T9, Lck(h) activated (Homo sapiens, UniProt P06239); conditions: 1 µM
T9 construct: purchased Eurofins KinaseProfiler
Outline: as §1

[10] = target: T10, Met(h) (Homo sapiens, UniProt P08581); conditions: for remaining activity at 1 µM: read-out: residual kinase activity Met(h)
T10 construct: purchased Eurofins KinaseProfiler
Outline: as §1

[11] = target: T11, PDGFRα(D842V)(h) (Homo sapiens, UniProt P16234, D842V); conditions: read-out: residual kinase activity PDGFRα(D842V)(h)
T11 construct: purchased Eurofins KinaseProfiler
Outline: as §1

[12] = target: T12, PI3 Kinase (p110b/p85a)(h) (Homo sapiens, UniProt P42338); conditions: read-out: residual kinase activity PI3 Kinase (p110b/p85a)(h)
T12 construct: purchased Eurofins KinaseProfiler
Outline: as §1

[13] = target: T13, PKCι(h) (Homo sapiens, UniProt P41743); conditions: read-out: residual kinase activity PKCι(h)
T13 construct: purchased Eurofins KinaseProfiler
T13 sequence (P41743 1-596): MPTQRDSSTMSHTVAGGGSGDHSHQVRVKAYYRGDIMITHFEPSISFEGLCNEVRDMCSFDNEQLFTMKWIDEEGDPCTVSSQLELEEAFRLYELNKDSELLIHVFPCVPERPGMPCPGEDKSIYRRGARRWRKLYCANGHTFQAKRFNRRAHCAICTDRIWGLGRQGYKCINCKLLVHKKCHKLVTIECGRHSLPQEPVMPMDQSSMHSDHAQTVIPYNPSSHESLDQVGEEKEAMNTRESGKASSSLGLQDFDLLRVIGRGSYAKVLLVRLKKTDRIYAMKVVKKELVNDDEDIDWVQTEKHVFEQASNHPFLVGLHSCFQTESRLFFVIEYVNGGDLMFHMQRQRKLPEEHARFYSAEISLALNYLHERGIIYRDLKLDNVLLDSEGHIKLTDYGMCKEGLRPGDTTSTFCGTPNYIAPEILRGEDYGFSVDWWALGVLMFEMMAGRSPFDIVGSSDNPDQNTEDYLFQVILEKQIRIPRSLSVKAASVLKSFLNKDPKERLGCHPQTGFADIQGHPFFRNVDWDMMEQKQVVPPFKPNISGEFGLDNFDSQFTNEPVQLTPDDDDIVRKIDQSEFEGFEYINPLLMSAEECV
Outline: as §1

[14] = target: T14, Pyk2(h) (Homo sapiens, UniProt Q14289); conditions: read-out: residual kinase activity Pyk2(h)
T14 construct: purchased Eurofins KinaseProfiler
T14 sequence (Q14289 whole entry): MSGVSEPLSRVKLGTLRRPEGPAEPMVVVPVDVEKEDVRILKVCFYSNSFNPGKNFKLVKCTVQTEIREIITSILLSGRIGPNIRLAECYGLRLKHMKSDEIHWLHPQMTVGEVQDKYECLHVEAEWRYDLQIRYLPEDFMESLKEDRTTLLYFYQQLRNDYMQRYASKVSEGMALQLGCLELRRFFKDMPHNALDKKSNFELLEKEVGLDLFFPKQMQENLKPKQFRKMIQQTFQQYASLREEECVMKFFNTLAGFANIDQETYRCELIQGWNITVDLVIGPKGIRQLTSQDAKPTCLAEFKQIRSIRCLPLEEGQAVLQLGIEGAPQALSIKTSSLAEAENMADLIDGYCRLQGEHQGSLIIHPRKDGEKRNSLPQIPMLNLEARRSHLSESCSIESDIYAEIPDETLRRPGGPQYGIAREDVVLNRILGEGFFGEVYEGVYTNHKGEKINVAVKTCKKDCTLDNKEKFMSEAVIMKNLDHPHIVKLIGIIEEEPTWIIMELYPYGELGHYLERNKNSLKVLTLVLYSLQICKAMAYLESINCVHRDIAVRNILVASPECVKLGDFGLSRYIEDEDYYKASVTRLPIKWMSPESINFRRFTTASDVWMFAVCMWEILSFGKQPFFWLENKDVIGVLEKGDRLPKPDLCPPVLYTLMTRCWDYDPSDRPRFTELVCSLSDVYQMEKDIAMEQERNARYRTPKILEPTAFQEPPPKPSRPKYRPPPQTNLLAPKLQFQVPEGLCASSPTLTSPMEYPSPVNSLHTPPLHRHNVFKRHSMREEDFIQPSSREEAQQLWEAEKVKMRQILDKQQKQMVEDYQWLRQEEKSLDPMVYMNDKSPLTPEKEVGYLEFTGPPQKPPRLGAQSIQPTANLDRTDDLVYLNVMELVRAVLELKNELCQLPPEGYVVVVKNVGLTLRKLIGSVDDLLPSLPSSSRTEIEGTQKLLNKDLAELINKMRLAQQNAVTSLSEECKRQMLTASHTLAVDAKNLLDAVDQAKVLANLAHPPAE
Outline: as §1

[15] = target: T15, Tie2 (h) (Homo sapiens, UniProt Q02763); conditions: read-out: residual kinase activity Tie2 (h)
T15 construct: purchased Eurofins KinaseProfiler
Outline: as §1

[16] = target: T16, TrkA(h) (Homo sapiens, UniProt P04629); conditions: read-out: residual kinase activity TrkA(h)
T16 construct: purchased Eurofins KinaseProfiler
Outline: as §1

[17] = target: T17, Yes(h) (Homo sapiens, UniProt P07947); conditions: read-out: residual kinase activity Yes(h)
T17 construct: purchased Eurofins KinaseProfiler
Outline: as §1

[18] = target: T18, cKit(h) (Homo sapiens, UniProt P10721); conditions: read-out: residual kinase activity cKit(h)
T18 construct: purchased Eurofins KinaseProfiler
Outline: as §1

[19] = target: T19, cSRC(h) (Homo sapiens, UniProt P12931); conditions: read-out: residual kinase activity cSRC(h)
T19 construct: purchased Eurofins KinaseProfiler
Outline: as §1

SMILES | remaining activity at 1 µM [1] | remaining activity at 1 µM [2] | remaining activity at 1 µM [3] | remaining activity at 1 µM [4] | remaining activity at 1 µM [5] | remaining activity at 1 µM [6] | remaining activity at 1 µM [7] | remaining activity at 1 µM [8] | residual kinase activity Lck(h) activated [9] | remaining activity at 1 µM [10] | remaining activity at 1 µM [11] | remaining activity at 1 µM [12] | remaining activity at 1 µM [13] | remaining activity at 1 µM [14] | remaining activity at 1 µM [15] | remaining activity at 1 µM [16] | remaining activity at 1 µM [17] | remaining activity at 1 µM [18] | remaining activity at 1 µM [19] | inhibition at 1 µM [10]
CNC(=O)c1ccc(Nc2ncc(C(F)(F)F)c(NCc3nccnc3N(C)S(C)(=O)=O)n2)cc1 [VS-6063, Defactinib] | 58% | 84% | 88% | 128% | -6% | 43% | 16% | 55% | 58 | 42% | 87% | 103% | 100% | 6% | 82% | 2% | 56% | 80% | 72% | 
CONC(=O)c1ccccc1Nc1cc(Nc2cc(C)nn2C(C)C)ncc1Cl [GSK2256098] | 85% | 95% | 92% | 69% | -1% | 109% | 94% | 115% | 90 | 76% | 119% | 105% | 106% | 60% | 108% | 103% | 99% | 93% | 88% | 
CNC(=O)c1cccc(C)c1Nc1nc(Nc2ccc(N3CCN(C4C5CC6CC4CC(O)(C6)C5)CC3)cc2OC)ncc1C(F)(F)F (stereo not shown) [SJP1602, 2-((2-((4-(4-((2s,5r)-5-hydroxyadamantan-2-yl)piperazin-1-yl)-2-methoxyphenyl)amino)-5-(trifluoromethyl)pyrimidin-4-yl)amino)-N,3-dimethylbenzamide] | 62% | 88% | 83% | 120% | 3% | 111% | 100% | 116% | 107 | 21% | 141% | 100% | 93% | 4% | 105% | 109% | 84% | 97% | 99% | 79%
